Tests used:
panel of 442 kinases [1] = target: T1, panel of 442 kinases (Homo sapiens, UniProt O14920); type: binding; conditions: Compound Concentration 10 µM
T1 construct: purchased KINOMEscan
T1 sequence (O14920 1-756): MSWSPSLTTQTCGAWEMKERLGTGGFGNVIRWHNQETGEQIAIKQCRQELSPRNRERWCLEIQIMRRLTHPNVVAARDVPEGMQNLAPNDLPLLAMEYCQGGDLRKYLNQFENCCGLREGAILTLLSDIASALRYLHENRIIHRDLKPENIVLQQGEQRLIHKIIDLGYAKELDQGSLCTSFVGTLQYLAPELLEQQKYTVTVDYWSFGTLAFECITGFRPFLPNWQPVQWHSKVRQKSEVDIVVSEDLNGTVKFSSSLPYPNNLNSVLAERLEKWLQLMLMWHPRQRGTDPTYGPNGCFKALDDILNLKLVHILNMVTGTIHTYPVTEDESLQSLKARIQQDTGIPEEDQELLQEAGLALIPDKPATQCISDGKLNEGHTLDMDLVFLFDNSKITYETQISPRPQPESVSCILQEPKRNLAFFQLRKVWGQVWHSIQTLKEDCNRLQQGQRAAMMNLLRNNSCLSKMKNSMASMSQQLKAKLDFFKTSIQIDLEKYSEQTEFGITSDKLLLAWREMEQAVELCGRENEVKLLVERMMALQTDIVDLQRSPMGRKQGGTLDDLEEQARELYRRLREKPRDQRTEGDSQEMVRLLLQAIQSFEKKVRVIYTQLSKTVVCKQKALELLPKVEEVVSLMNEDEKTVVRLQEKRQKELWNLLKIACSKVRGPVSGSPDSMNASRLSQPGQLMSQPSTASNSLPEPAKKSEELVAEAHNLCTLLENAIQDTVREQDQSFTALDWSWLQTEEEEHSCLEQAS
From the text: (§1) We assessed the selectivity of members of this scaffold using the KINOMEscan methodology across a near comprehensive panel of 442 kinases [[18,27]].

panel of 442 kinases [2] = target: T2, panel of 442 kinases (Homo sapiens, UniProt P10721, D816V); type: binding; conditions: Compound Concentration 10 µM
T2 construct: purchased KINOMEscan
From the text: as §1

T2 sequence (P10721 26-976 D816V): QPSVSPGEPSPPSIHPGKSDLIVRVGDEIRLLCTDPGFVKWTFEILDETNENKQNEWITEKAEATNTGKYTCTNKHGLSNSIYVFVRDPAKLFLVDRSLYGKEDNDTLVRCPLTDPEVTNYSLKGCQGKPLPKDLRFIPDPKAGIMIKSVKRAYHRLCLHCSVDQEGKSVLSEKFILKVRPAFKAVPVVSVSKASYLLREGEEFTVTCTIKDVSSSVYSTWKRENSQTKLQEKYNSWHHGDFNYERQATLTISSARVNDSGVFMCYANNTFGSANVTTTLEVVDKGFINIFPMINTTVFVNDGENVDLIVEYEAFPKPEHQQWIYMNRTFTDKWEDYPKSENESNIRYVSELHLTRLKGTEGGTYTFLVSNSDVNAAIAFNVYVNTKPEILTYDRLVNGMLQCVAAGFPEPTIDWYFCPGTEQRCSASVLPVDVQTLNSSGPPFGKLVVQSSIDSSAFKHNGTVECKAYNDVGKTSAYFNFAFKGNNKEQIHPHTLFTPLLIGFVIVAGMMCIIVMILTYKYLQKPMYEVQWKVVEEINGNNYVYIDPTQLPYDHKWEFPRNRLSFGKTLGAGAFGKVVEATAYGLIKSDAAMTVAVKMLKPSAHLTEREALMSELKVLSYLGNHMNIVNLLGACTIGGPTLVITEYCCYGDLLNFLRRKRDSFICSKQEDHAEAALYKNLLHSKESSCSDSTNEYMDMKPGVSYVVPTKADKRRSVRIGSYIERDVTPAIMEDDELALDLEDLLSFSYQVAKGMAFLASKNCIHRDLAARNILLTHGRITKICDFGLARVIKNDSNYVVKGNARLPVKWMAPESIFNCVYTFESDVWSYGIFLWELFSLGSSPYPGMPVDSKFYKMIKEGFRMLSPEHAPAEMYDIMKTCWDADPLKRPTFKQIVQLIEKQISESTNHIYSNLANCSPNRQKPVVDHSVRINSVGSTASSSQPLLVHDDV

Compound | KINOMEscan: IKK-beta (panel of 442 kinases [1]) | KINOMEscan: KIT(D816V) (panel of 442 kinases [2])
COc1cc(C(=O)N2CCC(N3CCN(C)CC3)CC2)ccc1Nc1ncc2c(n1)N(C)c1ccccc1C(=O)N2C [15 (LRRK2-IN-1)] | 89 | 72
CCOc1cc(C(=O)N2CCC(N3CCN(C)CC3)CC2)ccc1Nc1ncc2c(n1)N(C1CCCC1)c1ccccc1C(=O)N2C [Compound 26] | 99 | 96
COc1cc(C(=O)N2CCC(N3CCN(C)CC3)CC2)ccc1Nc1ncc2c(n1)N(C1CCCC1)c1ccccc1C(=O)N2C [Compound 25, 11-cyclopentyl-2-((2-methoxy-4-(4-(4-methylpiperazin-1-yl)piperidine-1-carbonyl)phenyl)amino)-5-methyl-5H-benzo[e]pyrimido[5,4-b][1,4]diazepin-6(11H)-one] | 100 | 92
